Results: ChEMBL document CHEMBL1143631, “On the binding of indeno[1,2-c]isoquinolines in the DNA-topoisomerase I cleavage complex” (J Med Chem, 2005)
Activity calls are given as the source filed them. The rule behind the calls is not given here.

Target: T1, DNA topoisomerase 1 (Homo sapiens) (UniProt P11387)
T1 sequence (whole entry): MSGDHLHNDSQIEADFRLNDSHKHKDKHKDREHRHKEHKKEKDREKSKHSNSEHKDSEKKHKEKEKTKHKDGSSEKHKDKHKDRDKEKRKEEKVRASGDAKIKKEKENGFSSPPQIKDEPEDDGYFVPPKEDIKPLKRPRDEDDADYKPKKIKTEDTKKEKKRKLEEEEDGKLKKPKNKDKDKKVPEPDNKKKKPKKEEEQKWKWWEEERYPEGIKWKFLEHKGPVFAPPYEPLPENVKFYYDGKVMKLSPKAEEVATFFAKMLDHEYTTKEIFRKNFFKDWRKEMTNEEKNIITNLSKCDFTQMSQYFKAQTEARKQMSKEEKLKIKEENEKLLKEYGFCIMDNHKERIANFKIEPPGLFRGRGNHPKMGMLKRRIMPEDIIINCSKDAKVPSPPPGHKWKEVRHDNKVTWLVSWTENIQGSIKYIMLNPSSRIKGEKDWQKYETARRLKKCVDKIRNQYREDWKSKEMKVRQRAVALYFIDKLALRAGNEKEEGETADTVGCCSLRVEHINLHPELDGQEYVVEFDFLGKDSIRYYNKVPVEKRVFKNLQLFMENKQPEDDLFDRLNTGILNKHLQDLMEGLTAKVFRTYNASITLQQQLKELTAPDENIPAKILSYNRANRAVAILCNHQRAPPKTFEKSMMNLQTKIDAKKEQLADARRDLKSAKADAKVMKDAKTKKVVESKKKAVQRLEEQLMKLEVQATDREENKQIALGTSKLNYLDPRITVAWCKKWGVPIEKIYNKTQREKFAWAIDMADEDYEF
Experiment: Inhibitory activity against DNA-Topoisomerase I

Row | inhibition | SMILES
1 | inactive | Nc1ccc2c3c(n(CCCCl)c(=O)c2c1)-c1cc2c(cc1C3=O)OCO2
2 | inactive | O=C1c2cc3c(cc2-c2c1c1ccccc1c(=O)n2CCCCl)OCO3
